Results as given in patent US20220193447A1, “METHODS FOR MODULATION OF AND SENSITIZATION TO SERINE AND GLYCINE LIMITATION” (Faeth Therapeutics, Inc., priority 2020, published 2022).
Where a SMILES comes first, the peptide text is derived from it. The star is where a group is joined. Cbz = O=C(OCc1ccccc1)*

Experiments:
[1] = test system: IDO1 expression; experiment: Immunoblotting of IDO1 in human pancreatic cancer cells; format: cell-based; conditions: for IDO1 protein levels: 2D or 3D culture, MG132 20 μM 16 h, bafilomycin A1 100 nM
[2] = test system: ATF-4 response; experiment: Western blots of SSP enzymes and ATF-4 response; format: cell-based, human; conditions: MG-132 10 μM
Method: Protein lysates were processed in RIPA-buffer supplemented with phosphatase inhibitor cocktail and complete protease inhibitors. Lysates were separated using precast NuPAGE 4-12% Bis-Tris Protein gels and transferred to nitrocellulose membranes. Following incubation with primary antibodies, appropriate secondary antibodies were used to detect the proteins. Westerns scanned using the Odyssey CLx or visualized using ECL chemiluminescence detection kits.
Cells were grown for 24 hours in −SG medium or CM and treated with 10 μM PH755 diluted in DMSO or DMSO alone. To evaluate protein synthesis, puromycin (final concentration: 90 μM) was added to each well 10 minutes prior harvesting the cells for western blot analysis, except in the negative control well. Where indicated, cells grown in CM medium were treated with cycloheximide (10 μg/mL) for the last 5 hours providing a control for translation inhibition. Incorporation of puromycin into newly synthesized proteins was assessed by Western blot using an anti-puromycin antibody. To assess the accumulation of short-lived proteins in response to proteasome inhibition, cells grown in −SG medium or CM plus or minus 10 μM PH755 for 24 hours were treated for the last 6 hours with the proteasome inhibitor MG-132 (10 μM) before harvesting the cells for western blot analysis.

[3] = test system: HT-29 and HCT116 cells; conditions: supplement alone (1 mM sodium formate or 0.4 mM glycine)
Method: Cells (2×10^4 to 3×10^4 cells/well depending on the cell lines) were plated in 24-well plates in their regular medium. […] For the counting step, cells were trypsinized, suspended in PBS-EDTA, and counted with a CASY Model TT Cell Counter. Relative cell number at each time point was calculated based on the number of cells measured before the medium change.

[4] = test system: IDO1 expression; experiment: Immunoblotting of IDO1 in KPC cells; format: cell-based, mouse
[5] = test system: KPC cells; experiment: KPC cell proliferation with or without serine; format: cell-based, mouse; conditions: epacadostat 1 μM, −Serine medium, 5 days
Method: KPC cells (tumor cells derived from a pancreatic tumor of a Kras' p53″^t genetically engineered mouse) were seeded into 24-well plates and allowed to adhere overnight. […] Cell number was recorded every 24 h for 5 days. A time zero plate was used to calculate the starting cell number.

Molecule: CC(C)C[C@@H](C=O)NC(=O)[C@H](CC(C)C)NC(=O)[C@H](CC(C)C)NC(=O)OCc1ccccc1 [MG-132] (Cbz-Leu-Leu-Leu-aldehyde)
- IDO1 protein levels [1]: no effect on IDO1 protein levels
- ATF-4 protein level ([2]; cells in complete medium): strong accumulation of ATF-4
- ATF-4 protein levels and ASNS, PSAT expression ([2]; cells in −SG medium plus PH755): no restoration of ATF-4 protein levels

Molecule: NCC(=O)O [glycine]
- growth of −SG plus PH755 treated cells [3]: did not restore growth

Molecule: human form of IFNγ: human cytokine IFNγ, canonical activator of IDO1
- IDO1 expression ([4]; murine cells, human form of IFNγ): did not impact IDO1 expression in murine cells
- IDO1 expression ([1]; panel of human pancreatic cancer cells, IFNγ 1 ng/ml, 24 h): consistently increased IDO1 expression

Molecule: NS(=O)(=O)NCCNc1nonc1C(=NO)Nc1ccc(F)c(Br)c1 [epacadostat]
- antiproliferative effect of serine starvation [5]: enhances the antiproliferative effect

Molecule: O=C[O-].[Na+] [formate, sodium formate]
- growth of −SG plus PH755 treated cells [3]: did not restore growth

Molecule: CC(C)(C)c1nc2c3cc[nH]c(=O)c3c3cc(F)ccc3c2[nH]1 [JAKi]
- up-regulation of IDO1 protein levels in AI-grown cells ([1]; CFPAC-1 or HPAF-II cells, JAKi 1 μM, 16 h): blocked

Molecule: CO/C1=C\C(C)=C\[C@@H](C)[C@@H](O)[C@@H](C)C/C(C)=C/C=C/[C@H](OC)[C@@H]([C@@H](C)[C@@H](O)[C@H](C)[C@@]2(O)C[C@@H](O)[C@H](C)[C@@H](C(C)C)O2)OC1=O [bafilomycin, bafilomycin A1]
- IDO1 protein levels [1]: no effect on IDO1 protein levels

B1: murine form of cytokine IFNγ: murine cytokine IFNγ, a canonical activator of IDO1 (protein, UniProt P01580 23-155, looked up)
Interferon gamma: HGTVIESLESLNNYFNSSGIDVEEKSLFLDIWRNWQKDGDMKILQSQIISFYLRLFEVLKDNQAISNNISVIESHLITTFFSNSKAKKDAFMSIAKFEVNNPQVQRQAFNELIRVVHQLLPESSLRKRKRSRC
- IDO1 expression ([4]; KPC cells, murine IFNγ 1 ng/ml, 24 h): increased IDO1 expression in vitro
